Experiments:
Format in all cases: in vivo
[1] = test system: Rhipicephalus microplus; assay: Rhipicephalus (Boophilus) microplus injection test (BOOPMI Inj); settings: 168 h, injection into adult engorged female ticks, egg deposition after 7 days, read-out: activity (efficacy: 100% means all eggs are infertile); for pest or weed control at 0.004 mg: application rate 4 μg/tick; for pest or weed control at 0.02 mg: application rate 20 μg/tick
Method in brief: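 Five engorged adult female R. microplus ticks injected into the abdomen with 1 μL of compound diluted in DMSO, then kept in a climate chamber. Fertile egg deposition checked after 7 days; eggs without visible fertility held until hatching at about 42 days. Efficacy: 100% = all eggs infertile, 0% = all fertile.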

[2] = test system: Rhipicephalus microplus; assay: Rhipicephalus (Boophilus) microplus in-vitro contact test, larval cattle tick, strain Parkhurst (BOOPMI Cont); settings: application rate 5 μg/cm^2 (=500 g/ha), tick larvae, after 48 hours, read-out: activity (efficacy: 100% means all larvae are dead or moribund)
Method in brief: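 Acetone solutions dried onto glass tube walls (900 ppm giving 5 μg/cm^2); 20-50 pyrethroid-resistant Parkhurst larvae added per tube and held 48 h at 27° C., 85% relative humidity. Efficacy scored by negative geotaxis as % dead or moribund larvae.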

[3] = test system: Ctenocephalides felis; assay: Ctenocephalides felis in-vitro contact test, adult cat flea (CTECFE Cont); settings: application rate 5 μg/cm^2 (=500 g/ha), adult cat fleas, after 48 hours, read-out: activity (efficacy: 100% means all fleas are dead or moribund)
Method in brief: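 Acetone solutions coated on glass tube inner walls (900 ppm giving 5 μg/cm^2), then 5-10 adult fleas added and held 48 h at room temperature. Fleas unable to escape a 45-50° C. heating plate within 5 min scored dead or moribund; efficacy = % dead/moribund.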

[4] = test system: Rhipicephalus sanguineus; assay: Rhipicephalus sanguineus in-vitro contact test, adult brown dog ticks (RHIPSA Cont); settings: 48 h, after 48 hours, read-out: activity (efficacy: 100% means all ticks are dead or moribund); for pest or weed control at 5 µg/cm2, 500 g/ha: application rate 5 μg/cm^2 (=500 g/ha); for pest or weed control at 1 µg/cm2, 100 g/ha: application rate 1 μg/cm^2 (=100 g/ha)
Method in brief: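 Compound in acetone was coated onto the inner walls of glass tubes and dried by rotation before adult brown dog ticks were exposed. Efficacy was scored at 48 h. Ticks unable to climb away from a 45–50 °C heating plate within 5 min counted as dead or moribund.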

[5] = test system: Diabrotica balteata; assay: Diabrotica balteata spray test; settings: 168 h, wheat seeds, larvae, after 7 days, read-out: activity (efficacy: 100% means all seedlings have grown up like in the untreated, uninfected control); for pest or weed control at 32 µg/disc, 100 g/ha: application rate 100 g/ha (=32 μg/well); for pest or weed control at 160 µg/disc, 500 g/ha: application rate 500 g/ha (=160 μg/well)
Method in brief: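 Wheat seedlings, germinated 1 day on agar, were sprayed with compound in acetone/DMF diluted in water containing emulsifier, then infested with 10-20 Diabrotica balteata larvae. After 7 days efficacy in % was scored: 100% means seedlings grew like the untreated, uninfected control; 0% means none grew.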

[6] = test system: Nezara viridula; assay: Nezara viridula spray test; settings: in Hordeum vulgare, 96 h, barley plants, larvae, after 4 days; for mortality at 500 g/ha: application rate 500 g/ha; for mortality at 100 g/ha: application rate 100 g/ha
Method in brief: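 Barley plants infested with N. viridula larvae were sprayed with compound in acetone/DMF diluted with water containing 1000 ppm alkylarylpolyglycol ether emulsifier. Mortality (%) was scored after 4 days; 100% means all bugs killed, 0% none.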

[7] = test system: Spodoptera frugiperda; assay: Spodoptera frugiperda spray test; settings: in Zea mays, 168 h, read-out: activity (mortality)
Method in brief: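 Maize leaf sections were sprayed with compound formulated in acetone/DMF and diluted in water containing 1000 ppm emulsifier. Dried leaves were infested with fall armyworm larvae, and percent mortality was scored after 7 days.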

Row | SMILES | pest or weed control at 0.004 mg [1] | pest or weed control at 0.02 mg [1] | pest or weed control at 5 µg/cm2 [2] | pest or weed control at 5 µg/cm2 [3] | pest or weed control at 5 µg/cm2, 500 g/ha [4] | pest or weed control at 32 µg/disc, 100 g/ha [5] | pest or weed control at 160 µg/disc, 500 g/ha [5] | mortality at 500 g/ha [6] | mortality at 100 g/ha [7] | mortality at 500 g/ha [7] | pest or weed control at 1 µg/cm2, 100 g/ha [4] | mortality at 100 g/ha [6]
1 | CCc1nc([C@H](C)NC(=O)c2cc(Cl)cc(Cl)c2)n(-c2ccc(C#N)cn2)n1 [I-2] | 100% | 100% | 100% | 100% | 100% | 100% | 100% | 90% | 100% | 100% | – | –
2 | C[C@H](NC(=O)c1cc(Cl)nc(C(F)(F)F)c1)c1ncnn1-c1ccc(C#N)cn1 [II-5] | 100% | 100% | 100% | 100% | 100% | 100% | 100% | 100% | 100% | 100% | 100% | 90%
3 | C[C@H](NC(=O)c1ccnc(C(F)(F)F)n1)c1ncnn1-c1ccc(C#N)cn1 [II-8] | 100% | 100% | 100% | 90% | 100% | 100% | 100% | 100% | – | 100% | 100% | 100%
4 | C[C@H](NC(=O)c1cc(Cl)cc(SC(F)F)c1)c1ncnn1-c1ccc(C#N)cn1 [II-11] | 100% | 100% | 100% | 100% | 80% | 100% | 100% | – | 100% | 100% | – | 100%
5 | C[C@H](NC(=O)c1cc(Cl)cc(C(F)F)c1)c1ncnn1-c1ccc(C#N)cn1 [II-12] | 100% | 100% | 100% | 100% | 100% | 100% | 100% | 100% | 100% | 100% | 100% | 100%
6 | C[C@H](NC(=O)c1cc(Br)cc(Br)c1)c1ncnn1-c1ccc(C#N)cn1 [II-13] | 100% | 100% | 100% | 100% | 80% | 100% | – | 90% | 100% | 100% | 100% | –
7 | C[C@H](NC(=O)c1cc(Br)cc(OC(F)(F)F)c1)c1ncnn1-c1ccc(C#N)cn1 [II-14] | 100% | 100% | 100% | 100% | 80% | 100% | 100% | 100% | 100% | 100% | 80% | 100%
8 | CC(=O)Nc1ccnc(-n2ncnc2[C@H](C)NC(=O)c2cc(Cl)cc(C(F)(F)F)c2)c1 [II-36] | 100% | 100% | 100% | 80% | – | – | – | 90% | 100% | 100% | – | –
9 | C[C@H](NC(=O)c1cc(Cl)cc(C#N)c1)c1ncnn1-c1ccc(C#N)cn1 [II-57] | 100% | 100% | 100% | 100% | 100% | – | – | – | 100% | – | 100% | 100%
10 | Cc1nc([C@H](C)NC(=O)c2cncc(C(F)(F)F)c2)n(-c2ccc(C#N)cn2)n1 [II-63] | 100% | 100% | 100% | 100% | 100% | 100% | – | – | – | – | 100% | 100%
11 | C[C@H](NC(=O)c1cc(C(F)(F)F)cc(C(F)(F)F)c1)c1ncnn1-c1ccc(C(N)=O)cn1 [II-81] | 100% | – | 100% | 100% | – | 80% | – | – | 100% | – | – | 100%
12 | Cc1nc([C@H](C)NC(=O)c2cc(C(F)(F)F)cc(C(F)(F)F)c2)n(-c2ccc(C(=O)N(C)CC#N)cn2)n1 [II-99] | 100% | – | 100% | 100% | 100% | 100% | – | – | – | – | 100% | 100%
